Measurements published in patent US11891634B2, “PDE5A destabilizing domains” (The Board of Trustees of the Leland Stanford Junior …, priority 2017, dated 2024).

Columns and labels:
[1] = test system: NIH3T3 cells expressing AcGFP-PDE5A fusions; experiment: FACS analysis of C-terminal PDE5A mutants (AcGFP-PDE5A fusions), Sildenafil vs vehicle; assay type: cell-based, mouse; conditions: for Mean Fluorescence intensity: NIH3T3; for Stabilization ratio: Sildenafil 10 μM vs vehicle alone; for basal expression in the absence of ligand (in words): extended PDE5A variants, NIH3T3, no Sildenafil
Description: (§1) The NIH3T3 cell line was cultured in DMEM supplemented with 10% heat-inactivated donor bovine serum (Invitrogen), 2 mM glutamine, 100 U/ml penicillin and 100 μg/ml streptomycin.
(§2) The ΦNX ecotropic packaging cell line was transfected using standard Lipofectamine 2000 protocols. Viral supernatants were harvested 48 hours, post transfection, filtered and concentrated 10-fold using Amicon Ultra centrifugal filter device with a 100kDa cutoff. NIH 3T3 cells were incubated with concentrated retroviral supernatants supplemented with 4 μg/ml polybrene for 4 hours at 37° C. Cells were washed once with PBS and cultured in growth media for 24-36 hours to allow for viral integration.
(§3) The transduced NIH3T3 cells were subjected to analysis using fluorescence-activated cell sorting (FACS) to screen the libraries of PDE5A mutants. 24 hours prior to analysis, transduced NIH3T3 cells were plated at 1×10^5 cells per well of a 12-well plate. Cells were removed from the plate using PBS and 2 mM EDTA, washed once with PBS, and resuspended in 200 μL, PBS. FACS analysis was performed on instruments at the Stanford Shared FACS Facility with 10,000 events represented.
(§4) To identify destabilizing domains that are responsive to the PDE5A ligand, Sildenafil, a cell-based screening assay was employed in which the fluorescence of green fluorescent protein derived from Aequorea coerulescens (AcGFP) served as an indicator of PDE5A stability. A library based on the PDE5A catalytic domain sequences was generated using error prone PCR and then cloned in-frame in front of AcGFP. A Moloney murine leukemia retroviral expression was used to stably integrate this library of PDE5A-AcGFP fusions into NIH-3T3 fibroblasts, and the transduced cells were subjected to three rounds of sorting using flow cytometry. In the first round, cells were treated with 10 μM of PDE5A ligand, Sildenafil for 16-24 before analysis. Fluorescent cells were collected and further cultured in the absence of ligand for 60 hours.
(§5) A library of AcGFP-PDE5A fusions i.e., C-terminal PDE5A mutants was screened using the cell-based screening assay described previously to identify C-terminal destabilizing domains. […] Identified candidates were subjected to further characterization by FACS. Cells were split into two treatment groups and incubated with either Sildenafil (10 μM) or vehicle alone for 24 hours. Cells that were mock transduced or transduced with the wild-type PDE5A construct were also included in the analysis. The stabilization ratio was calculated as the fold change in GFP intensity of the AcGFP-PDE5A construct in Sildenafil treated sample compared to vehicle alone treated sample. The results are presented in Table 2 where the C terminal PDE5A mutants are denoted as PDE5AC.
Residue D764 was identified as a mutational hotspot from sequence analysis. PDE5AC (#41) was engineered with either D764N or D764G mutation via site-directed mutagenesis. PDE5AC (#41) +D764N comprises the amino acid sequence of SEQ ID NO. 53 (encoded by SEQ ID NO. 54) and PDE5AC (#41) +D764G comprises the amino acid sequence of SEQ ID NO. 55 (encoded by SEQ ID NO. 56). AcGFP-PDE5A variants were evaluated for Sildenafil dependent stabilization via FACS as described previously. Results from FACS analysis are presented in Table 4 where the C terminal PDE5A mutants are denoted as PDE5AC. The stabilization ratio was calculated as the fold change in GFP intensity of the AcGFP-PDE5A construct in Sildenafil treated sample compared to vehicle alone treated sample.
Extended versions of human PDE5A that included residues in addition to catalytic domain (residues 535-860 of SEQ ID NO. 1) with Q589R polymorphism (SEQ ID NO. 11) were evaluated for use as C-terminal destabilizing domains. Three extended PDE5A sequences were tested that consisted of residues 535-875 of SEQ ID NO. 1 with Q589R polymorphism (SEQ ID NO. 13); residues 466-875 of SEQ ID NO. 1 with Q589R polymorphism (SEQ ID NO. 15); or residues 420-875 of SEQ ID NO. […]

[2] = test system: PDE5A-AcGFP fusions; experiment: FACS analysis of N-terminal PDE5A mutants (PDE5A-AcGFP fusions), Sildenafil vs vehicle; assay type: cell-based, mouse; conditions: 24 hours; for Stabilization ratio: Sildenafil 20 μM vs vehicle alone; for Mean Fluorescence Intensity (MFI) Sildenafil (20 μM) / Mean Fluorescence Intensity (MFI) Vehicle control: NIH3T3; for Mean Fluorescence Intensity (MFI) Vehicle control: vehicle alone
Description: as §1, §2, §3, §4
as §5, with “PDE5A-AcGFP” for “AcGFP-PDE5A”, “N-terminal” for “C-terminal”, “mutants,” for “mutants”, “(20” for “(10”, “The results are presented in Table 6 where the N terminal PDE5A mutants are denoted as PDE5AN. The” for “The”, “sample.” for “sample. The results are presented in Table 2 where the C terminal PDE5A mutants are denoted as PDE5AC.”

[3] = Table 2, Sildenafil (10 μM) +, 24 hours
[4] = Table 2, Sildenafil (10 μM) −, vehicle alone, 24 hours
[5] = Table 2, fold change in GFP intensity, 24 hours
[6] = Table 4 (D764 mutations), Sildenafil (10 μM) +
[7] = Table 4 (D764 mutations), Sildenafil (10 μM) −
[8] = Table 5 (extended variants), Sildenafil (10 μM) +
[9] = Table 5 (extended variants), Sildenafil (10 μM) −

Substance	Stabilization ratio [2]	Mean Fluorescence Intensity (MFI) Sildenafil (20 μM) [2]	Mean Fluorescence Intensity (MFI) Vehicle control [2]	Mean Fluorescence intensity [1, 8]	Mean Fluorescence intensity [1, 9]	Stabilization ratio ([1]; Table 5)	basal expression in the absence of ligand (in words) [1]	also measured
PDE5AC (#40): AcGFP fused to C-terminal DD 535-860 of PDE5A (Q589R, D764G), SEQ ID NO. 26								Mean Fluorescence intensity [1, 3]: 5923; Mean Fluorescence intensity [1, 4]: 1255; Stabilization ratio [1, 5]: 4.7; Mean Fluorescence intensity [1, 6]: 4229; Mean Fluorescence intensity [1, 7]: 917; Stabilization ratio ([1]; Table 4): 4.6
PDE5AN (#19): N-terminal DD 535-860 of PDE5A (Q589R, I599V, T711A, F744L, L746S, L804P), SEQ ID NO. 31, fused to AcGFP	2.86	4297	1502					
PDE5AC (#41) + D764G: PDE5AC (#41) engineered with D764G mutation, SEQ ID NO. 55								Mean Fluorescence intensity [1, 6]: 730; Mean Fluorescence intensity [1, 7]: 709; Stabilization ratio ([1]; Table 4): 1.0
PDE5AC 535-860 (Q589R): AcGFP fused to PDE5A catalytic domain residues 535-860 with Q589R polymorphism, SEQ ID NO. 11 [reference compound]				8557	8431	1.0	high basal expression	
PDE5AN (#35): N-terminal DD 535-860 of PDE5A (S560G, V585A, N587S, Q589R, K591E, S663P, F840S), SEQ ID NO. 32, fused to AcGFP	2.50	3684	1476					
PDE5AC 535-875 (Q589R): AcGFP fused to residues 535-875 of SEQ ID NO. 1 with Q589R polymorphism, SEQ ID NO. 13				6462	6761	1.0	high basal expression	
PDE5AC 466-875 (Q589R): AcGFP fused to residues 466-875 of SEQ ID NO. 1 with Q589R polymorphism, SEQ ID NO. 15				888	819	1.1	low basal expression	
PDE5AC (#41) + D764N: PDE5AC (#41) engineered with D764N mutation, SEQ ID NO. 53								Mean Fluorescence intensity [1, 6]: 1007; Mean Fluorescence intensity [1, 7]: 684; Stabilization ratio ([1]; Table 4): 1.5
PDE5AN (#55): N-terminal DD 535-860 of PDE5A (Q589R, I648V, M816T), SEQ ID NO. 33, fused to AcGFP	2.87	3602	1257					
PDE5AC (#8): AcGFP fused to C-terminal DD 535-860 of PDE5A (F561L, F564L, Q589R, D724N, S766F, T802P), SEQ ID NO. 34								Mean Fluorescence intensity [1, 3]: 3310; Mean Fluorescence intensity [1, 4]: 1066; Stabilization ratio [1, 5]: 3.1
PDE5AN (#30): N-terminal DD 535-860 of PDE5A (Q589R, L675P, F755L), SEQ ID NO. 69, fused to AcGFP	4.46	4713	1056					
PDE5AN (#57): N-terminal DD 535-860 of PDE5A (N587S, Q589R, K608E, N661S, D764V), SEQ ID NO. 68, fused to AcGFP	7.6	5851	770					
PDE5AC 420-875 (Q589R): AcGFP fused to residues 420-875 of SEQ ID NO. 1 with Q589R polymorphism, SEQ ID NO. 17				572	620	0.9	low basal expression	
